Experimental data: ChEMBL document CHEMBL4507304, “Data for DCP probe TP-021” (2021)

Legend:
[1] = biological target: Tyrosine-protein kinase Yes (Homo sapiens) (UniProt P07947); conditions: Compound concentration 1000.0 nM
[2] = system: Receptor-type tyrosine-protein kinase FLT3 (Homo sapiens), P36888 [UNDEFINED MUTATION]; conditions: Compound concentration 1000.0 nM
[3] = biological target: Vascular endothelial growth factor receptor 2 (Homo sapiens) (UniProt P35968); conditions: Compound concentration 1000.0 nM
[4] = system: Epidermal growth factor receptor (Homo sapiens), P00533 [L861Q]; conditions: Compound concentration 1000.0 nM
[5] = biological target: Uncharacterized serine/threonine-protein kinase SBK3 (Homo sapiens) (UniProt P0C264); conditions: Compound concentration 1000.0 nM
[6] = biological target: Cyclin-dependent kinase-like 1 (Homo sapiens) (UniProt Q00532); conditions: Compound concentration 1000.0 nM
[7] = biological target: Non-receptor tyrosine-protein kinase TNK1 (Homo sapiens) (UniProt Q13470); conditions: Compound concentration 1000.0 nM
[8] = system: Phosphatidylinositol 4,5-bisphosphate 3-kinase catalytic subunit alpha isoform (Homo sapiens), P42336 [E545K]; conditions: Compound concentration 1000.0 nM
[9] = system: ALK tyrosine kinase receptor (Homo sapiens), Q9UM73 [L1196M]; conditions: Compound concentration 1000.0 nM
[10] = biological target: Receptor tyrosine-protein kinase erbB-4 (Homo sapiens) (UniProt Q15303); conditions: Compound concentration 1000.0 nM
[11] = biological target: Glycogen synthase kinase-3 beta (Homo sapiens) (UniProt P49841); conditions: Compound concentration 1000.0 nM
[12] = biological target: Bone morphogenetic protein receptor type-1A (Homo sapiens) (UniProt P36894); conditions: Compound concentration 1000.0 nM
[13] = biological target: Macrophage colony-stimulating factor 1 receptor (Homo sapiens) (UniProt P07333); conditions: Compound concentration 1000.0 nM
[14] = biological target: Mitogen-activated protein kinase kinase kinase 6 (Homo sapiens) (UniProt O95382); conditions: Compound concentration 1000.0 nM
[15] = biological target: Tyrosine-protein kinase FRK (Homo sapiens) (UniProt P42685); conditions: Compound concentration 1000.0 nM
[16] = biological target: Ephrin type-B receptor 4 (Homo sapiens) (UniProt P54760); conditions: Compound concentration 1000.0 nM
[17] = biological target: Inhibitor of nuclear factor kappa-B kinase subunit alpha (Homo sapiens) (UniProt O15111); conditions: Compound concentration 1000.0 nM
[18] = biological target: Aurora kinase A (Homo sapiens) (UniProt O14965); conditions: Compound concentration 1000.0 nM
[19] = biological target: STE20-like serine/threonine-protein kinase (Homo sapiens) (UniProt Q9H2G2); conditions: Compound concentration 1000.0 nM
[20] = biological target: Peripheral plasma membrane protein CASK (Homo sapiens) (UniProt O14936); conditions: Compound concentration 1000.0 nM
[21] = biological target: Calcium/calmodulin-dependent protein kinase type II subunit delta (Homo sapiens) (UniProt Q13557); conditions: Compound concentration 1000.0 nM
[22] = biological target: SRSF protein kinase 3 (Homo sapiens) (UniProt Q9UPE1); conditions: Compound concentration 1000.0 nM
[23] = biological target: Serine/threonine-protein kinase SIK3 (Homo sapiens) (UniProt Q9Y2K2); conditions: Compound concentration 1000.0 nM
[24] = biological target: Hepatocyte growth factor receptor (Homo sapiens) (UniProt P08581); conditions: Compound concentration 1000.0 nM
[25] = biological target: Mitogen-activated protein kinase 12 (Homo sapiens) (UniProt P53778); conditions: Compound concentration 1000.0 nM
[26] = biological target: Serine/threonine-protein kinase MRCK beta (Homo sapiens) (UniProt Q9Y5S2); conditions: Compound concentration 1000.0 nM
[27] = biological target: Cyclin-dependent kinase 4 (Homo sapiens) (UniProt P11802); conditions: Compound concentration 1000.0 nM
Cyclin-dependent kinase 4 (Homo sapiens), sequence (P11802 whole entry): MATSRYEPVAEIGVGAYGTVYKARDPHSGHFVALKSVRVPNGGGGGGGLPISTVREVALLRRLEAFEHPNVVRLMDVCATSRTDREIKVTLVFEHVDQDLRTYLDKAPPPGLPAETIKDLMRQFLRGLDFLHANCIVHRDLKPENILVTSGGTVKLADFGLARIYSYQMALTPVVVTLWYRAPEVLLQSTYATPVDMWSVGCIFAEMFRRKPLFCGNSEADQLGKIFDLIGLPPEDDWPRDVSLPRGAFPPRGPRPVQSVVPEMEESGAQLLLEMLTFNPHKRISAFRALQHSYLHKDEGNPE

[28] = system: Leucine-rich repeat serine/threonine-protein kinase 2 (Homo sapiens), Q5S007 [G2019S]; conditions: Compound concentration 1000.0 nM
Leucine-rich repeat serine/threonine-protein kinase 2 (Homo sapiens), Q5S007 [G2019S], sequence (Q5S007 whole entry G2019S): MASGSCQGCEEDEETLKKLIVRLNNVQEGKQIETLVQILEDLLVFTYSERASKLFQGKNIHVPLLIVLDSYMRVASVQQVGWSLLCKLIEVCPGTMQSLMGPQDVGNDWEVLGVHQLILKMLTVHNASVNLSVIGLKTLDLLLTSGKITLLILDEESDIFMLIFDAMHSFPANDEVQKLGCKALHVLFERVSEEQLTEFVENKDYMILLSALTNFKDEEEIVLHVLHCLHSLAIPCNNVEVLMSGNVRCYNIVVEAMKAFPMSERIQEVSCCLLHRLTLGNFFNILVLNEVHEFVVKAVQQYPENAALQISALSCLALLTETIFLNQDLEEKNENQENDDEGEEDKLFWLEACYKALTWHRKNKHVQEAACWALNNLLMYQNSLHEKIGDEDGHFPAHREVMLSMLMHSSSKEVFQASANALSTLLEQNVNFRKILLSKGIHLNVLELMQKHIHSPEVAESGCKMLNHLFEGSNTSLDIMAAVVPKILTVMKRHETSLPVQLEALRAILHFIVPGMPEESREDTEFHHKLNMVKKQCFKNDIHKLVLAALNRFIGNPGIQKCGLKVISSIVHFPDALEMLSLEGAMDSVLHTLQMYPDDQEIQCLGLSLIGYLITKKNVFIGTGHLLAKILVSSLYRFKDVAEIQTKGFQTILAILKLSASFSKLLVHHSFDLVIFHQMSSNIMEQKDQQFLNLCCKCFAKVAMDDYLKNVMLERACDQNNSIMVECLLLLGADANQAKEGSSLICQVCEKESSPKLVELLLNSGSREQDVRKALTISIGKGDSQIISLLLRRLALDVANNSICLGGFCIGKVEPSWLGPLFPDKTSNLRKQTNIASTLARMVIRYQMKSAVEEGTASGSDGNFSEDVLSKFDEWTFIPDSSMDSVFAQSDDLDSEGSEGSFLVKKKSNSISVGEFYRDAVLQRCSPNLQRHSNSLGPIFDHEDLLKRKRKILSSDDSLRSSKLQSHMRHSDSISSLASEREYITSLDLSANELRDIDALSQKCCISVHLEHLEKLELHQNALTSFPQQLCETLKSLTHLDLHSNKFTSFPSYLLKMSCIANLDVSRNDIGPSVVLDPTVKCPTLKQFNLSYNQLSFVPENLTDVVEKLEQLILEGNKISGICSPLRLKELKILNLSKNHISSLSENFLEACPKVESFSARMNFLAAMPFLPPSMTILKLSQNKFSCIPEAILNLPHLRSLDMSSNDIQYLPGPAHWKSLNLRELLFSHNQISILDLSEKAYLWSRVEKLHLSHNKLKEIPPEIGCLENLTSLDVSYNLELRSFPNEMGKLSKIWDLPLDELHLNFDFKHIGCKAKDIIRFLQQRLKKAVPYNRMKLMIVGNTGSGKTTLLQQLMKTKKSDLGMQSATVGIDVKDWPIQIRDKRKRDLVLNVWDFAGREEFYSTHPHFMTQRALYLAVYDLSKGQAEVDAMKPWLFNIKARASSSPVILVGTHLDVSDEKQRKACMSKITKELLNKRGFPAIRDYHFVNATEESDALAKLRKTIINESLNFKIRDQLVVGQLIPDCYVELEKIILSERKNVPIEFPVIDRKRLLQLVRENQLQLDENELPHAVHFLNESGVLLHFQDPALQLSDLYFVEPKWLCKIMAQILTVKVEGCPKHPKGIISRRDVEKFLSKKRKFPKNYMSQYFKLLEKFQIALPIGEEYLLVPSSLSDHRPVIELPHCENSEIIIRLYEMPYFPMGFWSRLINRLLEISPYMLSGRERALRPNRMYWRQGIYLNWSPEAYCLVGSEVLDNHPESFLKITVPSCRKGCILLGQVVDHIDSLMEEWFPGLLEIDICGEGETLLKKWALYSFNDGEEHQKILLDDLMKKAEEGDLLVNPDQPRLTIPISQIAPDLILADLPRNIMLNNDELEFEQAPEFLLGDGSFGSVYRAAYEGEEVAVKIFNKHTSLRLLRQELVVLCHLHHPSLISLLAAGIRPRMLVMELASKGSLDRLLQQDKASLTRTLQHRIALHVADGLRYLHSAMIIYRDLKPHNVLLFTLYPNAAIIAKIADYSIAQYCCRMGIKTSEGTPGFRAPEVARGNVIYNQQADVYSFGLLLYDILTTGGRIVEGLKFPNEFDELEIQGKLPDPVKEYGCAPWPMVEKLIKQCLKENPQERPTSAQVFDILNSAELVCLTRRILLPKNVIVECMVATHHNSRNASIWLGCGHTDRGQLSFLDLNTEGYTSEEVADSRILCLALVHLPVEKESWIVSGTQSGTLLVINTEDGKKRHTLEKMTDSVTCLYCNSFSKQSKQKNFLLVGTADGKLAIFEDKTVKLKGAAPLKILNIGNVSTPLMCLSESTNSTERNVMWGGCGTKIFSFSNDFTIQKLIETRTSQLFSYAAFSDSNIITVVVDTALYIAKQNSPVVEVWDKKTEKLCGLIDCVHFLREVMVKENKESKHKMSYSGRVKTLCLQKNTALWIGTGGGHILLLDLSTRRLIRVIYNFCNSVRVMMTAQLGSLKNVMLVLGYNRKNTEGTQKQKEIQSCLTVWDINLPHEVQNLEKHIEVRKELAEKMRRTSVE

[29] = biological target: Insulin receptor-related protein (Homo sapiens) (UniProt P14616); conditions: Compound concentration 1000.0 nM
[30] = biological target: Mitogen-activated protein kinase kinase kinase kinase 5 (Homo sapiens) (UniProt Q9Y4K4); conditions: Compound concentration 1000.0 nM
[31] = biological target: Non-receptor tyrosine-protein kinase TYK2 (Homo sapiens) (UniProt P29597); conditions: Compound concentration 1000.0 nM
Non-receptor tyrosine-protein kinase TYK2 (Homo sapiens), sequence (P29597 whole entry): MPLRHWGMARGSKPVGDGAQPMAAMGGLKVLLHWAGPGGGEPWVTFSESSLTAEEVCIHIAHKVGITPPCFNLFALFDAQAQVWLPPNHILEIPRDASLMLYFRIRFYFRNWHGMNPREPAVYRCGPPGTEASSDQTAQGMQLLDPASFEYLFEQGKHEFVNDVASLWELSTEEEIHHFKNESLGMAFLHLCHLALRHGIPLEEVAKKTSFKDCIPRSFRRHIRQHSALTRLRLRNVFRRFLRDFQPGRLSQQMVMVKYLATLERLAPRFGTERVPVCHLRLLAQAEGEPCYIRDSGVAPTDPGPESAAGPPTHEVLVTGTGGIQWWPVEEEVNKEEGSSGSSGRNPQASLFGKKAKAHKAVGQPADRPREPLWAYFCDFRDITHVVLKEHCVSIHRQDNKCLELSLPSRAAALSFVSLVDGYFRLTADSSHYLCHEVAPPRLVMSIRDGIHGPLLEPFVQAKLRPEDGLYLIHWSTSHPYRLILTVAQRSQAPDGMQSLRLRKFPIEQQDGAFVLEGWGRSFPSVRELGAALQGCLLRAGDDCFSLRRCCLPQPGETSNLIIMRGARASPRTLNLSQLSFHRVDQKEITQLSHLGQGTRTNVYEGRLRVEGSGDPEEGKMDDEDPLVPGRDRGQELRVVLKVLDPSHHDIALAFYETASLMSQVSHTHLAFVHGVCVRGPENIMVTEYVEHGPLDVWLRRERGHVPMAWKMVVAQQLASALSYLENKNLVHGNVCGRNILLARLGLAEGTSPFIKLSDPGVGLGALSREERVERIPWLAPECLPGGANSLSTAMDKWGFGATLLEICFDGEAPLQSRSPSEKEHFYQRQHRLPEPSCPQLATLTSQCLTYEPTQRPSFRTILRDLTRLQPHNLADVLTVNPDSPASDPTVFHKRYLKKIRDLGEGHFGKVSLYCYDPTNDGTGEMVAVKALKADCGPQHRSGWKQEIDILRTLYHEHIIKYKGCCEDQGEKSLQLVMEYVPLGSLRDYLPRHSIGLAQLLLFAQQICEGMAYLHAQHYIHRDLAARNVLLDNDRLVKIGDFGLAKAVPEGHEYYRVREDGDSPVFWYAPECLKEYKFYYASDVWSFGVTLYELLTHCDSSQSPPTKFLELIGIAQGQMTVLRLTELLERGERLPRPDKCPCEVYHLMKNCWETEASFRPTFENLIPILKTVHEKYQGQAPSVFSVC

[32] = biological target: BDNF/NT-3 growth factors receptor (Homo sapiens) (UniProt Q16620); conditions: Compound concentration 1000.0 nM
[33] = biological target: 5-hydroxytryptamine receptor 2B (Homo sapiens) (UniProt P41595); conditions: Compound concentration 10.0 uM
[34] = species: Rattus norvegicus; conditions: Compound concentration 10.0 uM
[35] = biological target: Cyclin-dependent kinase 4 (Homo sapiens) (UniProt P11802); conditions: Compound concentration 1000.0 nM; remark: listed apart in the source
[36] = biological target: Serine/threonine-protein kinase LATS2 (Homo sapiens) (UniProt Q9NRM7); conditions: Compound concentration 1000.0 nM
[37] = biological target: NT-3 growth factor receptor (Homo sapiens) (UniProt Q16288); conditions: Compound concentration 1000.0 nM
NT-3 growth factor receptor (Homo sapiens), sequence (Q16288 32-839 limits assumed): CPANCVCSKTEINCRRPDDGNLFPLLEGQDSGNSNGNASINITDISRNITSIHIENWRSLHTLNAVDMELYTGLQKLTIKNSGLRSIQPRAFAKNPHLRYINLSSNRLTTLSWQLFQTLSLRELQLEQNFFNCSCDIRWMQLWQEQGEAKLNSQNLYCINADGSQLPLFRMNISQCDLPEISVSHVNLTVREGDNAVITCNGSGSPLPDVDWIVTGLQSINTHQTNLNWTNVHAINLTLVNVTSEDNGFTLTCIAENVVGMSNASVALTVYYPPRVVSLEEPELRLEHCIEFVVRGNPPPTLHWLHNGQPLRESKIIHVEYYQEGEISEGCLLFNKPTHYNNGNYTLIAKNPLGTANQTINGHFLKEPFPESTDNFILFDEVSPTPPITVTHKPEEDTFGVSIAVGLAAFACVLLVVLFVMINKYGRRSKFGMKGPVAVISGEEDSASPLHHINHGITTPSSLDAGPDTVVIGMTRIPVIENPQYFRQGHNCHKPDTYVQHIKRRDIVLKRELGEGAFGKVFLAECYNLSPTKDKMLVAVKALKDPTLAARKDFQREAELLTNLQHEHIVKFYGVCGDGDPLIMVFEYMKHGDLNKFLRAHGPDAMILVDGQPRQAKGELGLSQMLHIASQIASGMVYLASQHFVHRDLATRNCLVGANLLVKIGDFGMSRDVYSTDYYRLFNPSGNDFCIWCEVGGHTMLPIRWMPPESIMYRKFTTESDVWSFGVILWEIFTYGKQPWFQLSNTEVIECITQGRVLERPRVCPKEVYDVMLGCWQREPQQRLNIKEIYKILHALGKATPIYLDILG

[38] = biological target: Serine/threonine-protein kinase PAK 1 (Homo sapiens) (UniProt Q13153); conditions: Compound concentration 1000.0 nM
[39] = biological target: Testis-specific serine/threonine-protein kinase 3 (Homo sapiens) (UniProt Q96PN8); conditions: Compound concentration 1000.0 nM
Testis-specific serine/threonine-protein kinase 3 (Homo sapiens), sequence (Q96PN8 whole entry): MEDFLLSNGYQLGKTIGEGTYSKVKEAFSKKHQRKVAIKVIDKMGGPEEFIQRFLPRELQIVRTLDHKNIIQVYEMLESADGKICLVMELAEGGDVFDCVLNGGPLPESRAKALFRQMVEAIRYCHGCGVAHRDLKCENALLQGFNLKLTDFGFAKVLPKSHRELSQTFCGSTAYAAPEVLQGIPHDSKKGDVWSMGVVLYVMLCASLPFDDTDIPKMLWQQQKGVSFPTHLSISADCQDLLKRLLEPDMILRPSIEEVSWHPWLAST

[40] = biological target: Cyclin-dependent kinase 14 (Homo sapiens) (UniProt O94921); conditions: Compound concentration 1000.0 nM
[41] = biological target: 5-hydroxytryptamine receptor 3A (Homo sapiens) (UniProt P46098); conditions: Compound concentration 10.0 uM
[42] = system: Tyrosine-protein kinase ABL1 (Homo sapiens), P00519 [F317L]; conditions: Compound concentration 1000.0 nM
[43] = biological target: cGMP-dependent protein kinase 1 (Homo sapiens) (UniProt Q13976); conditions: Compound concentration 1000.0 nM
[44] = biological target: Serine/threonine-protein kinase DCLK3 (Homo sapiens) (UniProt Q9C098); conditions: Compound concentration 1000.0 nM
[45] = biological target: Rhodopsin kinase GRK1 (Homo sapiens) (UniProt Q15835); conditions: Compound concentration 1000.0 nM

N#Cc1ccc(Nc2ccc3[nH]c(=O)[nH]c3c2)c(Cl)c1
inactive: residual activity [1] 100% | residual activity [2] 100% | residual activity [3] 99% | residual activity [4] 100% | residual activity [5] 96% | residual activity [6] 84% | residual activity [7] 56% | residual activity [8] 79% | residual activity [9] 100% | residual activity [10] 100% | residual activity [11] 96% | residual activity [12] 100% | residual activity [13] 97% | residual activity [14] 100% | residual activity [15] 73% | residual activity [16] 98% | residual activity [17] 100% | residual activity [18] 87% | residual activity [19] 100% | residual activity [20] 100% | residual activity [21] 100% | residual activity [22] 100% | residual activity [23] 75% | residual activity [24] 94% | residual activity [25] 100% | residual activity [26] 100% | residual activity [27] 86% | residual activity [28] 93% | residual activity [29] 100% | residual activity [30] 77% | residual activity [31] 100% | residual activity [32] 100% | inhibition [33] 11% | inhibition [34] 3.22% | residual activity [35] 91% | residual activity [36] 95% | residual activity [37] 100% | residual activity [38] 85% | residual activity [39] 100% | residual activity [40] 100% | inhibition [41] 1.33% | residual activity [42] 84% | residual activity [43] 80% | residual activity [44] 88% | residual activity [45] 100%

O=C1CCc2cc(Nc3cc(OC4CCOCC4)c([N+](=O)[O-])cc3Cl)ccc2N1
inactive: residual activity [1] 96% | residual activity [2] 100% | residual activity [3] 100% | residual activity [4] 100% | residual activity [5] 100% | residual activity [6] 78% | residual activity [7] 87% | residual activity [8] 79% | residual activity [9] 100% | residual activity [10] 100% | residual activity [11] 96% | residual activity [12] 97% | residual activity [13] 96% | residual activity [14] 91% | residual activity [15] 73% | residual activity [16] 100% | residual activity [17] 100% | residual activity [18] 87% | residual activity [19] 100% | residual activity [20] 100% | residual activity [21] 100% | residual activity [22] 100% | residual activity [23] 75% | residual activity [24] 80% | residual activity [25] 100% | residual activity [26] 90% | residual activity [27] 78% | residual activity [28] 100% | residual activity [29] 100% | residual activity [30] 87% | residual activity [31] 94% | residual activity [32] 100% | inhibition [33] 3.31% | inhibition [34] 13.4% | residual activity [35] 90% | residual activity [36] 80% | residual activity [37] 100% | residual activity [38] 88% | residual activity [39] 100% | residual activity [40] 100% | inhibition [41] 4.05% | residual activity [42] 88% | residual activity [43] 89% | residual activity [44] 91% | residual activity [45] 100%
